# In patent publication US20220144838A1, “Compounds as Inhibitors of Macrophage Migration Inhibitory Factor” (NANJING IMMUNOPHAGE BIOTECH CO., LTD., priority 2019, published 2022):
# Molecular target: T1, MIF (Homo sapiens, UniProt P14174)
# T1 sequence (P14174 2-115 limits assumed): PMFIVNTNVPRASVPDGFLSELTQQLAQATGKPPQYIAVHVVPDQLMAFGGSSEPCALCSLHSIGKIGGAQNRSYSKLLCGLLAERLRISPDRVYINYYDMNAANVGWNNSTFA
# Assay: MIF tautomerase assay using pHPP as substrate
# Assay type: biochemical
# Details: FIGS. 1-5; mean of multiple test results; read-out: pIC50 MIF tautomerase activity (converted)
# Description: Tautomerase Assay Using pHPP as Substrate
# This assay measured MIF's tautomerase activity in a cell-free system and was based on the determination of initial rates of the MIF-catalyzed conversion of the ketonic into the enolic tautomer of pHPP. This was achieved by spectrophotometric quantification of the complex between borate and the product of the reaction (enolic pHPP). The substrate was prepared by conversion of the enolic pHPP into its ketonic form. To achieve this, 0.5 M pHPP in methanol was diluted 10-fold with 50 mM sodium acetate buffer at pH 6.0, and then the suspension was shaken for 24 h at room temperature in darkness, and finally stored at 4° C. for not more than 1 week, with 5 min sonication being recommended before use.
# Assays were performed in small-volume clear-bottom black 96 or 384-well polystyrene plates (Greiner Bio-One). First, 2 μL of the enzyme solution containing 6 nM of MIF in DPBS, 0.025% w/v BSA, and 300 μM CHAPS was dispensed onto sample and negative control wells using Multidrop Combi with metallic tip cassettes (Thermo Fisher Scientific) previously treated with Sigmacote. Then, 2 μL of the same buffer without MIF was dispensed onto positive control wells. The reaction was started by addition of the following to all wells: 2 μL of substrate solution containing 3 mM ketonic pHPP in 200 mM boric acid, 25 mM sodium phosphate, 0.025% w/v BSA, and 300 μM CHAPS at pH 6.0. In order to remove bubbles, the plate was centrifuged in an Allegra 25R centrifuge (Beckman Coulter, Inc., Brea, Calif.) at 1000 rpm for 2 min at room temperature. Then, the plate was read in an EnVision. Final concentrations of enzyme and substrate were 3 nM and 1.5 mM, respectively. Initial rates were calculated for each well as the slope of the absorbance progress curve.
# All exemplified compounds (Examples 1-230) were tested in the MIF tautomerase assay or a similar assay described above. The data mentioned below represents a mean pIC50 value of multiple test results. It is understood that the data illustrated below may have reasonable variation depending on the specific conditions and procedures used by the person conducting the testing.
row,Compound,IC50
1,"O=C(Cn1cnc2c(-n3ncc4ccccc43)nc(N3CCN(c4ccc(O)cc4)CC3)nc21)NS(=O)(=O)C1CC1 [Example 55, N-(cyclopropylsulfonyl)-2-(2-(4-(4-hydroxyphenyl)piperazin-1-yl)-6-(1H-indazol-1-yl)-9H-purin-9-yl)acetamide]",≤ 100 nM
2,"CC(C)(C)OC(=O)Cn1cnc2c(-n3nnc4c(C(=O)O)cccc43)nc(N3CCN(c4ccc(O)cc4)CC3)nc21 [Example 100, 1-(9-(2-(tert-butoxy)-2-oxoethyl)-2-(4-(4-hydroxyphenyl)piperazin-1-yl)-9H-purin-6-yl)-1H-benzo[d][1,2,3]triazole-4-carboxylic acid]",≤ 100 nM

# Same assay, conditions: inhibition of the MIF enzyme in vitro; mean of multiple test results; read-out: Tautomerase Inhibition pIC50 (converted)
row,Compound,IC50
1,"OCCn1cnc2c(-n3ncc4ccccc43)nc(N3CCC(O)(c4ccc(F)cc4)CC3)nc21 [Example 224, 4-(4-fluorophenyl)-1-(9-(2-hydroxyethyl)-6-(1H-indazol-1-yl)-9H-purin-2-yl)piperidin-4-ol]",1000 to 9770 nM
2,"OCCn1cnc2c(-n3nc(CO)c4ccccc43)nc(N3CCN(c4ccc(O)cc4)CC3)nc21 [Example 152, 4-(4-(9-(2-hydroxyethyl)-6-(3-(hydroxymethyl)-1H-indazol-1-yl)-9H-purin-2-yl)piperazin-1-yl)phenol]",10 to 97.7 nM
3,"O=C(Cn1cnc2c(-n3ncc4ccccc43)nc(N3CCN(c4ccc(O)cc4)CC3)nc21)NS(=O)(=O)C1CC1 [Example 55, N-(cyclopropylsulfonyl)-2-(2-(4-(4-hydroxyphenyl)piperazin-1-yl)-6-(1H-indazol-1-yl)-9H-purin-9-yl)acetamide]",10 to 97.7 nM
4,"Cc1cncc(-n2cnc3c(C)nc(N4CCN(c5ccc(O)cc5)CC4)nc32)c1 [Example 38, 4-(4-(6-methyl-9-(5-methylpyridin-3-yl)-9H-purin-2-yl)piperazin-1-yl)phenol]",1000 to 9770 nM
5,"Nc1nc(N2CCC(O)(C#CCO)CC2)nc2c1ncn2-c1ccncc1 [Example 198, 1-(6-amino-9-(pyridin-4-yl)-9H-purin-2-yl)-4-(3-hydroxyprop-1-yn-1-yl)piperidin-4-ol]",> 10000 nM
6,O=C(O)Cn1cnc2c(-n3nc(-c4nnn[nH]4)c4ccccc43)nc(N3CCN(c4ccc(O)cc4)CC3)nc21 [Example 135],10 to 97.7 nM
7,"O=C(O)C1CCN(c2nc(N3CCN(c4cccnc4)CC3)nc3c2ncn3-c2ccncc2)C1 (stereo not drawn) [Example 181, 1-(2-(4-(pyridin-3-yl)piperazin-1-yl)-9-(pyridin-4-yl)-9H-purin-6-yl)pyrrolidine-3-carboxylic acid]",> 10000 nM
8,"CN1CCN(c2nc(N3CCN(c4ccc(O)cc4)CC3)nc3c2ncn3-c2ccncc2)CC1=O [Example 175, 4-(2-(4-(4-hydroxyphenyl)piperazin-1-yl)-9-(pyridin-4-yl)-9H-purin-6-yl)-1-methylpiperazin-2-one]",10 to 97.7 nM
9,"CC(C)(C(=O)O)n1cnc2c(-n3ncc4ccccc43)nc(N3CCN(c4ccc(O)cn4)CC3)nc21 [Example 141, 2-(2-(4-(5-hydroxypyridin-2-yl)piperazin-1-yl)-6-(1H-indazol-1-yl)-9H-purin-9-yl)-2-methylpropanoic acid]",10 to 97.7 nM
10,"CC(C(=O)O)n1cnc2c(-n3ncc4ccccc43)nc(N3CCN(c4ccc(O)cc4)CC3)nc21 (stereo not drawn) [Example 124, 2-(2-(4-(4-hydroxyphenyl)piperazin-1-yl)-6-(1H-indazol-1-yl)-9H-purin-9-yl)propanoic acid]",10 to 97.7 nM
11,"OC1(c2cn[nH]c2)CN(c2ncc3ncn(-c4ccncc4)c3n2)C1 [Example 200, 3-(1H-pyrazol-4-yl)-1-(9-(pyridin-4-yl)-9H-purin-2-yl)azetidin-3-ol]",> 10000 nM
12,"Oc1ccc(N2CCN(c3ncc4ncn(-c5ccncc5)c4n3)CC2)cc1 [Example 184, 4-(4-(9-(pyridin-4-yl)-9H-purin-2-yl)piperazin-1-yl)phenol]",10 to 97.7 nM
13,"O=C(Cn1cnc2c(-n3ncc4ccccc43)nc(N3CCN(c4ccc(O)cc4)CC3)nc21)NS(=O)(=O)Cc1ccccc1 [Example 98, N-(benzylsulfonyl)-2-(2-(4-(4-hydroxyphenyl)piperazin-1-yl)-6-(1H-indazol-1-yl)-9H-purin-9-yl)acetamide]",100 to 977 nM
14,"O=C(O)Cn1cnc2c(-n3nnc4ccccc43)nc(N3CCN(c4ccc(O)cc4)CC3)nc21 [Example 24, 2-(6-(1H-benzo[d][1,2,3]triazol-1-yl)-2-(4-(4-hydroxyphenyl)piperazin-1-yl)-9H-purin-9-yl)acetic acid]",10 to 97.7 nM
15,"O=C(O)Cn1cnc2c(-n3ncc4ccccc43)nc(N3CCN(c4ccc(O)cn4)CC3)nc21 [Example 21, 2-(2-(4-(5-hydroxypyridin-2-yl)piperazin-1-yl)-6-(1H-indazol-1-yl)-9H-purin-9-yl)acetic acid]",10 to 97.7 nM
16,"CC(CO)(CO)Nc1nc(N2CCN(c3ccc(O)cc3)CC2)nc2c1ncn2-c1ccncc1 [Example 177, 2-((2-(4-(4-hydroxyphenyl)piperazin-1-yl)-9-(pyridin-4-yl)-9H-purin-6-yl)amino)-2-methylpropane-1,3-diol]",100 to 977 nM

row,Compound,IC50
1,"CN(C)Cc1cccc2c1cnn2-c1nc(N2CCN(c3ccc(O)cn3)CC2)nc2c1ncn2CC(=O)O [Example 144, 2-(6-(4-((dimethylamino)methyl)-1H-indazol-1-yl)-2-(4-(5-hydroxypyridin-2-yl)piperazin-1-yl)-9H-purin-9-yl)acetic acid]",100 to 977 nM
2,"C=CCc1nn(-c2nc(N3CCN(c4ccc(O)cc4)CC3)nc3c2ncn3CC(=O)O)c2ccccc12 [Example 147, 2-(6-(3-allyl-1H-indazol-1-yl)-2-(4-(4-hydroxyphenyl)piperazin-1-yl)-9H-purin-9-yl)acetic acid]",1000 to 9770 nM
3,"CNC(=O)Cn1cnc2c(-n3cnc4ccccc43)nc(N3CCN(c4ccc(O)cc4)CC3)nc21 [Example 42, 2-(6-(1H-benzo[d]imidazol-1-yl)-2-(4-(4-hydroxyphenyl)piperazin-1-yl)-9H-purin-9-yl)-N-methylacetamide]",1000 to 9770 nM
4,"NC(=O)Cn1cnc2c(N3CCc4ccccc43)nc(N3CCN(c4ccc(O)cc4)CC3)nc21 [Example 32, 2-(2-(4-(4-hydroxyphenyl)piperazin-1-yl)-6-(indolin-1-yl)-9H-purin-9-yl)acetamide]",1000 to 9770 nM
5,"OCCn1cnc2c(-n3ncc4ccccc43)nc(N3CCC(O)(c4ccc(O)cc4)CC3)nc21 [Example 158, 1-(9-(2-hydroxyethyl)-6-(1H-indazol-1-yl)-9H-purin-2-yl)-4-(4-hydroxyphenyl)piperidin-4-ol]",100 to 977 nM
6,"Cc1ccncc1-n1cnc2c(N)nc(N3CCN(c4ccc(O)cc4)CC3)nc21 [Example 67, 4-(4-(6-amino-9-(4-methylpyridin-3-yl)-9H-purin-2-yl)piperazin-1-yl)phenol]",1000 to 9770 nM
7,"Oc1ccc(C2(O)CCN(c3nc(N4CCCCC4)c4ncn(-c5ccncc5)c4n3)CC2)cc1 [Example 211, 1 4-(4-hydroxyphenyl)-1-(6-(piperidin-1-yl)-9-(pyridin-4-yl)-9H-purin-2-yl)piperidin-4-ol]",1000 to 9770 nM
8,"Cc1nc(N2CCN(c3ccc(O)cc3)CC2)nc2c1ncn2-c1cc(Cl)cnn1 [Example 63, 4-(4-(9-(5-chloropyridazin-3-yl)-6-methyl-9H-purin-2-yl)piperazin-1-yl)phenol]",> 10000 nM
9,"O=C(O)Cn1cnc2c(-n3nnc4ccncc43)nc(N3CCN(c4ccc(O)cc4)CC3)nc21 [Example 121, 2-(6-(3H-[1,2,3]triazolo[4,5-c]pyridin-3-yl)-2-(4-(4-hydroxyphenyl)piperazin-1-yl)-9H-purin-9-yl)acetic acid]",10 to 97.7 nM
10,"CC(C)(C)OC(=O)Cn1cnc2c(-n3nnc4c(C(=O)O)cccc43)nc(N3CCN(c4ccc(O)cc4)CC3)nc21 [Example 100, 1-(9-(2-(tert-butoxy)-2-oxoethyl)-2-(4-(4-hydroxyphenyl)piperazin-1-yl)-9H-purin-6-yl)-1H-benzo[d][1,2,3]triazole-4-carboxylic acid]",10 to 97.7 nM
11,"Oc1ccc(N2CCN(c3nc(-n4ncc5ccccc54)c4ncn(-c5cccnc5)c4n3)CC2)cc1 [Example 12, 4-(4-(6-(1H-indazol-1-yl)-9-(pyridin-3-yl)-9H-purin-2-yl)piperazin-1-yl)phenol]",100 to 977 nM
12,"NC(=O)c1ccc(C2(O)CN(c3nc(N)c4ncn(-c5ccncc5)c4n3)C2)cc1 [Example 212, 4-(1-(6-amino-9-(pyridin-4-yl)-9H-purin-2-yl)-3-hydroxyazetidin-3-yl)benzamide]",1000 to 9770 nM
13,"O=C1CN(c2nc(N3CCN(c4ccc(O)cc4)CC3)nc3c2ncn3-c2ccncc2)CCN1 [Example 174, 4-(2-(4-(4-hydroxyphenyl)piperazin-1-yl)-9-(pyridin-4-yl)-9H-purin-6-yl)piperazin-2-one]",10 to 97.7 nM
14,"O=C(O)Cn1cnc2c(-n3ncc4ccccc43)nc(N3CCC(O)(c4ccc(F)cc4)CC3)nc21 [Example 223, 2-(2-(4-(4-fluorophenyl)-4-hydroxypiperidin-1-yl)-6-(1H-indazol-1-yl)-9H-purin-9-yl)acetic acid]",100 to 977 nM
15,"O=C(O)Cn1cnc2c(-n3ncc4ccc(CO)cc43)nc(N3CCN(c4ccc(O)cc4)CC3)nc21 [Example 105, 2-(6-(6-(hydroxymethyl)-1H-indazol-1-yl)-2-(4-(4-hydroxyphenyl)piperazin-1-yl)-9H-purin-9-yl)acetic acid]",100 to 977 nM
